Publication PMC6934184, “Selective DNA-PKcs inhibition extends the therapeutic index of localized radiotherapy and chemotherapy” (The Journal of Clinical Investigation, 2019)

Biological target: T1, MAP3K8 (COT) (Homo sapiens, UniProt P41279)
T1 construct: purchased Thermo Fisher Scientific (Life Technologies) SelectScreen
Assay: SelectScreen Z'LYTE
Assay type: biochemical
Conditions: ATP 100 µM
Outline: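 SelectScreen broad panel; activity (Z'LYTE, Adapta) plus binding formats. ATP: Km app for CSF1R Z'LYTE; 10 for CAMK1 Adapta. Readout = % per kinase.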

T1 sequence (P41279 whole entry): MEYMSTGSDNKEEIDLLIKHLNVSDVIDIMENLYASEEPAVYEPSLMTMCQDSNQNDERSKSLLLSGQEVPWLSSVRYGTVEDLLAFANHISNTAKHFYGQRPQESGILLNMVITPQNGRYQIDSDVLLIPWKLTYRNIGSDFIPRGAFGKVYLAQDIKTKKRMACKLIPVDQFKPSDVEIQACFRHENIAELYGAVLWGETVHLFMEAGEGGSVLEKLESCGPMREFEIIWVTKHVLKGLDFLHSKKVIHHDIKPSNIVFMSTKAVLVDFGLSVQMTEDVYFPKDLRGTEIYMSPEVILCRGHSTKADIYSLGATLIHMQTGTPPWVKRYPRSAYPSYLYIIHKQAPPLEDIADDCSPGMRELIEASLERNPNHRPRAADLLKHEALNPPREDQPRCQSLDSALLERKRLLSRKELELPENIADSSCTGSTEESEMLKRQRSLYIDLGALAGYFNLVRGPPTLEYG

CN(C(=O)CN1CCOCC1)c1ccc2sc3c(-c4cccc5c(=O)cc(N6CC7CCC(C6)O7)oc45)cccc3c2c1 [NU5455]
inhibition at 1 µM: 3.5%
